The conditions of series [1]: in vivo; cited from earlier work.
Series [2] concerns neurite outgrowth. Particulars: system not specified; cited from earlier work.
For series [3], the system named is neuroblastoma cells. Particulars: cited from earlier work.
Series [4] concerns mouse cerebellar explants. Conditions: cited from earlier work.
The test system of series [5] is choline acetyltransferase activity. Conditions: neuroblastoma cells in vitro; cited from earlier work.
The subject of series [6] is neuroblastoma cells. Particulars: neuroblastoma cells in vitro; cited from earlier work.
Series [7] relates to NS20Y neuroblastoma cells. Nature of the series: NS20Y neuroblastoma neurite outgrowth assay. Type of series: cell-based. Particulars: for neurite outgrowth (neuritogenic activity): 0.5-8 ng/ml peptide, 24 hours, DMEM 0.5% FCS. The method, then:
NS20Y neuroblastoma cells were grown in DMEM containing 10% fetal calf serum (FCS). Cells were removed with trypsin and plated in 30 mm petri dishes onto glass coverslips. After 20-24 hours, the medium was replaced with 2 ml DMEM containing 0.5% FCS plus 0, 0.5, 1, 2, 4 or 8 ng/ml effector peptides. Cells were cultured for an additional 24 hours, washed with PBS and fixed with Bouin's solution (saturated aqueous picric acid/formalin/acetic acid 15:5:1) for 30 minutes. Fixative was removed with PBS and neurite outgrowth was scored under a phase contrast microscope. […] At least 200 cells were scored in different portions of each dish to determine the percentage of neurite bearing cells and assays were performed in duplicate.
Increased neurite outgrowth was evident using as little as 0.5 ng/ml peptide.

Series [8] concerns NS20Y neuroblastoma cells. Nature of the series: Cell death assay, trypan blue staining of NS20Y cells in low serum. It counts as cell-based. Particulars: for reduction of the number of trypan blue-positive (dead) cells: NS20Y cells, 8 ng/ml peptide, 2 days in 0.5% fetal bovine serum; for prevention of cell death: neuroblastoma cells in culture. The method, then: NS20Y cells were plated as described in Example 1 and grown on glass coverslips in 0.5% fetal bovine serum for 2 days in the presence or absence of 8 ng/ml effector peptides. Media was removed and 0.2% trypan blue in PBS was added to each well. Blue-staining dead cells were scored as a percentage of the total on an inverted microscope, counting 400 cells in four areas of each well. The average error of duplicates was ±5%.

Series [9] in a line: Integrity (intactness) of peptide D4 in organs by HPLC 60 minutes after injection. Type of series: in vivo, rat. The method, then: In another study, an aliquot of brain, liver, lung and kidney was taken 60 minutes after injection for HPLC analyses (Vydac C4 column) to determine the integrity (intactness) of the peptide in brain, blood and kidney. Peptide D4 was 95% intact in these organs, indicating the in vivo stability of this peptide after 60 minutes. The peak at 16 min. is intact D4; a breakdown product peak is evident at 4 min.

A short description of series [10]: Localization of 125I-labelled peptide D4 in organs after intramuscular injection.
Protocol: After 20 min., the rat was anesthetized, perfused with PBS and the organs removed and counted in a gamma counter.
Series [11] concerns newborn mouse cerebellar explants. The series can be described thus: Ex vivo myelination assay in newborn mouse cerebellar explants. It counts as cell-based. Particulars: added on second day, observed for 22 days in culture; saposin C positive control 1-10 μg/ml. Here is the method:
Newborn mouse cerebellar explants are prepared according to Satomi (Zool. Sci. 9:127-137, 1992). Neurite outgrowth and myelination are observed for 22 days in culture, during the period when the newborn mouse cerebellum normally undergoes neuronal differentiation and myelination begins. D2, D3, D4, D5 or another peptide including SEQ ID NO: 12 is added on the second day after preparation of the explants (three control and three treated explants) and outgrowth of neurites and myelination are assessed under a bright field microscope with a video camera. Saposin C is used as a positive control at a concentration of between about 1 and 10 μg/ml.

The text below walks through data of patent US6458357B1, “Retro-inverso neurotrophic and analgesic peptides” (Myelos Corporation, priority 1997, dated 2002).

“Also recorded” adds a separate entry of the source. Where a SMILES comes first, the peptide text is derived from it. Where no end group is shown, it is not given here. [ ]: non-standard residue; d: D form.

As to “18-mer: YKEVTKLIDNNKTEKEIL; SEQ ID NO: 2; within the active 22-mer of saposin C, V replaced by Y (Homo Sapien)”, the “crossing of the blood-brain barrier” value in series [1] is “crosses the blood brain barrier; also recorded: able to cross the blood-brain barrier”. Besides, in series [2], the neurite outgrowth entry is “promotes neurite outgrowth”.

“22-mer: CEFLVKEVTKLIDNNKTEKEIL; SEQ ID NO: 1; amino acids 8-29 of human saposin C (Homo Sapien)”: the neurite outgrowth result in series [3] and in [4] was “stimulates neurite outgrowth” in each case. Moreover, the choline acetyltransferase activity entry in series [5] is “stimulates choline acetyltransferase activity”. For the same molecule, the “prevention of cell death” value in series [6] is reported as “prevented cell death”.

Turning to “rat 14-mer: rat 14-mer derived from the saposin C active sequence, SELIINNATEELLY; SEQ ID NO: 6 (Homo Sapien) [reference compound]”, in series [7], the “neurite outgrowth (neuritogenic activity)” value is on record as “induced neurite outgrowth”.

With “TX14(A): TXLIDNNATEEILY, X=D-alanine; SEQ ID NO: 4; modified 15-mer of human saposin C (T[dA]LIDNNATEEILY) [TX…, X=D-alanine; modified 15-mer of human saposin C, reference compound]”, in series [7], the “neurite outgrowth (neuritogenic activity)” value was “exhibited neuritogenic activity; also recorded: induced neurite outgrowth”. In [8], the “reduction of the number of trypan blue-positive (dead) cells” value was “about 50%” and the “prevention of cell death” value was “prevented cell death in neuroblastoma cells in culture to the same extent”.

As to `CC(C)C[C@@H](NC(=O)[C@@H](CC(C)C)NC(=O)[C@@H](CC(=O)O)NC(=O)[C@@H](CC(N)=O)NC(=O)[C@@H](CC(N)=O)NC(=O)[C@@H](C)NC(=O)[C@H](NC(=O)[C@@H](CCC(=O)O)NC(=O)[C@@H](CCC(=O)O)NC(=O)[C@@H](CC(C)C)NC(=O)[C@@H](CC(C)C)NC(=O)[C@H](N)Cc1ccc(O)cc1)[C@H](C)O)C(=O)O` [peptide D4] (H-[dY][dL][dL][dE][dE][dT][dA][dN][dN][dD][dL][dL]-OH; N-terminus and C-terminus assumed), the in vivo stability entry in series [9] (60 minutes after injection) is “stable in vivo”. Also, in series [9] (after intramuscular injection, rat), the “crossing of the blood brain barrier” value is “crosses the blood brain barrier in amounts sufficient to exert a therapeutic effect”. Further, in series [10] (after intramuscular injection into a rat), the “presence of peptide in the brain” value is reported as “significant amounts”. In addition, in series [10] (brain, 20 min after 200 μg/kg intramuscular, rat), the “concentration in brain relative to required neurotrophic dose for neural cells determined in vitro” value is on record as “approximately 20 times”.

In the case of “D3: retro-inverso peptide YLEETANNDLLAT; SEQ ID NO: 11 ([dY][dL][dE][dE][dT][dA][dN][dN][dD][dL][dL][dA][dT]; also: retro-inverso)”, the “neurite outgrowth (neuritogenic activity)” value in series [7] was “promoted neurite outgrowth in vitro”. The stimulation of myelination result in [11] is “to a similar extent as with saposin C”.

“peptide D2: YLIEETANNDILAT, all D-amino acids; SEQ ID NO: 5; retro-inverted TX14(A) ([dY][dL][dI][dE][dE][dT][dA][dN][dN][dD][dI][dL][dA][dT]; also: retro-inverted)”: in [7], the “neurite outgrowth activity compared with TX14(A)” value is given as “slightly more active that TX14(A); also recorded: slightly more effective than TX14(A)” and the “neurite outgrowth (neuritogenic activity)” value was “exhibited neuritogenic activity; also recorded: induced neurite outgrowth”. Further, in series [8], the “reduction of the number of trypan blue-positive (dead) cells” value was “about 50%” and the “prevention of cell death” value is “prevented cell death in neuroblastoma cells in culture to the same extent”. Further, the stimulation of myelination entry in series [11] is recorded as “to a similar extent as with saposin C”.

B1: saposin C: small heat-stable glycoprotein generated by proteolytic processing of prosaposin (protein, UniProt P07602 311-390, looked up)
Saposin-C: SDVYCEVCEFLVKEVTKLIDNNKTEKEILDAFDKMCSKLPKSLSEECQEVVDTYGSSILSILLEEVSPELVCSMLHLCSG
modifications: Saposin-C
With B1, in [2], the myelination result is “promote increased myelination” and the neurite outgrowth result is given as “stimulate neurite outgrowth”.
